Source: patent US10093630B2, “Pyrazole compounds and methods of making and using same” (ABIDE THERAPEUTICS, INC., priority 2014, dated 2018)
Where two headings read alike, the source gives them in different places.

How the values were obtained:
Assay in all cases: In vitro competitive activity-based protein profiling (gel-based, FP-Rh or HT-01 probe)
Format in all cases: biochemical
MAGL = target: T1, MAGL (Mus musculus, UniProt O35678); settings: for inhibition at 1 µM: 1 μM inhibitor; for inhibition at 10 µM: 10 μM inhibitor; for IC50: mouse brain membrane fraction or cell lysates, 30 min preincubation at 37° C., read-out: Mouse (IC50 value, nM) MAGL
T1 construct: Proteomes (mouse brain membrane fraction or cell lysates); from tissue; host or cells: mouse brain membrane fraction (or cell lysates, not specified)
T1 sequence (O35678 1-303): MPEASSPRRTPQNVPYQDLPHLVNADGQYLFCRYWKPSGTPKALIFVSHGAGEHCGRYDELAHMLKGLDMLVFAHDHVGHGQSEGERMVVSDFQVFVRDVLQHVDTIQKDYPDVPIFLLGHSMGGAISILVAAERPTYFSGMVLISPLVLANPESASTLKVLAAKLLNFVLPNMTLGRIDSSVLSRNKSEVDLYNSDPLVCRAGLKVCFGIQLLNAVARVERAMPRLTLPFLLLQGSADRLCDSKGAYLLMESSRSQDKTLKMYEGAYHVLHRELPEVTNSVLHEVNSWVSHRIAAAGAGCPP
Description: (§1) In Vitro Competitive Activity-Based Protein Profiling.
(§2) Proteomes (mouse brain membrane fraction or cell lysates) (50 μL, 1.0 mg/mL total protein concentration) were preincubated with varying concentrations of inhibitors at 37° C. After 30 min, FP-Rh or HT-01 ([…], 50 μM in DMSO) was added and the mixture was incubated for another 30 min at 37° C. Reactions were quenched with SDS loading buffer (15 μL—4×) and run on SDS-PAGE. Following gel imaging, serine hydrolase activity was determined by measuring fluorescent intensity of gel bands corresponding to MAGL, ABHD6, FAAH, and PLA2G7 using ImageJ 1.43u software.

ABHD6 = target: T2, ABHD6 (Mus musculus, UniProt Q8R2Y0); settings: for inhibition at 1 µM: 1 μM inhibitor, read-out: % Inhibition at 1 μM, C = ABHD6; for inhibition at 10 µM: 10 μM inhibitor, read-out: % Inhibition at 10 μM, C = ABHD6; for IC50: mouse brain membrane fraction or cell lysates, 30 min preincubation at 37° C., read-out: Mouse (IC50 value, nM) ABHD6
T2 construct: Proteomes (mouse brain membrane fraction or cell lysates); from tissue; host or cells: mouse brain membrane fraction (or cell lysates, not specified)
T2 sequence (Q8R2Y0 1-336): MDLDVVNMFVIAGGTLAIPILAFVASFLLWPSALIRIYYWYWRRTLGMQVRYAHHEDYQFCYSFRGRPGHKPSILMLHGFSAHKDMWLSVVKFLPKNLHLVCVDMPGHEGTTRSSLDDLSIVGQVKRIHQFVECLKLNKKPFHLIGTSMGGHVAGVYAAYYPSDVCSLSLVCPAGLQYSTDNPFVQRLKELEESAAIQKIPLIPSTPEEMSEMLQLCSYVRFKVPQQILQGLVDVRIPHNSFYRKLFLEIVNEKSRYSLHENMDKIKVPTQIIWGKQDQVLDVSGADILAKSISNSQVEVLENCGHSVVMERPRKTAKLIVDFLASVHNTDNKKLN
Description: as §1, §2

PLA2G7 = target: T3, PLA2G7 (Mus musculus, UniProt Q60963); settings: for inhibition at 1 µM: 1 μM inhibitor, read-out: % Inhibition at 1 μM, D = PLA2G7; for inhibition at 10 µM: 10 μM inhibitor, read-out: % Inhibition at 10 μM, D = PLA2G7
T3 construct: Proteomes (mouse brain membrane fraction or cell lysates); from tissue; host or cells: mouse brain membrane fraction (or cell lysates, not specified)
T3 sequence (Q60963 22-440): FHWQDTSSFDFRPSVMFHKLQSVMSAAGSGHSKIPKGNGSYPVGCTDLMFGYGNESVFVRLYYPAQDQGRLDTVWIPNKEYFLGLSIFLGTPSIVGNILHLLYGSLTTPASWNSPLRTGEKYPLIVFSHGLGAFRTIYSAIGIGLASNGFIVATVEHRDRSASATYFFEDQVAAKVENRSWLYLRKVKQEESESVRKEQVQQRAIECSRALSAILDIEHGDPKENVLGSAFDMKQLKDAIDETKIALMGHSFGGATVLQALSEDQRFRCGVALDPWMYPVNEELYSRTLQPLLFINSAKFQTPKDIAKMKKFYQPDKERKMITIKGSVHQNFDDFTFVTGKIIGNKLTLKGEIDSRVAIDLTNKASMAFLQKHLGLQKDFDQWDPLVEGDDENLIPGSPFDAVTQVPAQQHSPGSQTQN
Description: as §1, §2

FAAH = target: T4, FAAH (Mus musculus, UniProt O08914); settings: for inhibition at 1 µM: 1 μM inhibitor, read-out: % Inhibition at 1 μM, B = FAAH; for inhibition at 10 µM: 10 μM inhibitor, read-out: % Inhibition at 10 μM, B = FAAH; for IC50: mouse brain membrane fraction or cell lysates, 30 min preincubation at 37° C., read-out: Mouse (IC50 value, nM) FAAH
T4 construct: Proteomes (mouse brain membrane fraction or cell lysates); from tissue; host or cells: mouse brain membrane fraction (or cell lysates, not specified)
T4 sequence (O08914 1-579): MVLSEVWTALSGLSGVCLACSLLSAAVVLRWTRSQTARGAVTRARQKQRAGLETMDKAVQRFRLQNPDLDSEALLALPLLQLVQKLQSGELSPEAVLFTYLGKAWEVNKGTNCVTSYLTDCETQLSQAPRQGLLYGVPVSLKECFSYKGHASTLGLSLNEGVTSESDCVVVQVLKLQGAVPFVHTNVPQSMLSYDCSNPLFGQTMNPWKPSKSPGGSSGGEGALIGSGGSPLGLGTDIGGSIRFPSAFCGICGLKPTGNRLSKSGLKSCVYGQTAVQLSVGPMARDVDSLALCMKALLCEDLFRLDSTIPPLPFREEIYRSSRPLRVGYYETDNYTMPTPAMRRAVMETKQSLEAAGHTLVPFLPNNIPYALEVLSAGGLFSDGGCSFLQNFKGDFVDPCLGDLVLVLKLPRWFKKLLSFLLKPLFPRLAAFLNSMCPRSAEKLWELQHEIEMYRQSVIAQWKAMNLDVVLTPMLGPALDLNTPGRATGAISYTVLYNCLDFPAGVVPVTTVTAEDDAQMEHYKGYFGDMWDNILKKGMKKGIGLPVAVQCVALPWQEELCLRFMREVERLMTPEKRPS
Description: as §1, §2

inhibition at 1 µM (MAGL) | inhibition at 10 µM (MAGL) | IC50 (MAGL) | inhibition at 1 µM (ABHD6) | inhibition at 10 µM (ABHD6) | IC50 (ABHD6) | inhibition at 1 µM (FAAH) | inhibition at 10 µM (FAAH) | IC50 (FAAH) | SMILES | other results
 |  |  |  |  |  |  |  |  | Cc1ccccc1CN1CCN(C(=O)n2cc(C(F)(F)F)cn2)CC1 [Example 277, (4-(2-Methylbenzyl)piperazin-1-yl)(4-(trifluoromethyl)-1H-pyrazol-1-yl)methanone] | inhibition at 1 µM (MAGL; gel-based competitive ABPP): > 75%; inhibition at 1 µM (ABHD6; gel-based competitive ABPP): > 75%; inhibition at 1 µM (PLA2G7; gel-based competitive ABPP): > 75%; inhibition at 1 µM (FAAH; gel-based competitive ABPP): > 75%
< 25% | > 75% | > 1000 nM | < 25% | 25 to 75% | > 1000 nM | > 75% | > 75% | 100 to 1000 nM | CCN(Cc1ccc(OC)cc1)C(=O)n1cc(Cl)cn1 [Example 129, 4-Chloro-N-ethyl-N-(4-methoxybenzyl)-1H-pyrazole-1-carboxamide] | inhibition at 1 µM (PLA2G7): < 25%; inhibition at 10 µM (PLA2G7): < 25%
> 75% | > 75% |  | > 75% | > 75% |  | > 75% | > 75% |  | N#Cc1cnn(C(=O)N2CCN(Cc3ccc(-c4ccccc4)cc3)CC2)c1 [Example 24, 1-(4-([1,1′-Biphenyl]-4-ylmethyl)piperazine-1-carbonyl)-1H-pyrazole-4-carbonitrile] | inhibition at 1 µM (PLA2G7): > 75%; inhibition at 10 µM (PLA2G7): > 75%
 |  | < 100 nM |  |  | < 100 nM |  |  | 100 to 1000 nM | O=C(N1CCN(Cc2ccc(Cl)cc2N2CCCC2)CC1)n1cc(Cl)cn1 [Example 50, (4-Chloro-1H-pyrazol-1-yl)(4-(4-chloro-2-(pyrrolidin-1-yl)benzyl)piperazin-1-yl)methanone] | 
 | > 75% |  |  | > 75% |  |  | > 75% |  | O=C(N1CCCCC1)n1cc(Cl)cn1 [Example 96, (4-Chloro-1H-pyrazol-1-yl)(piperidin-1-yl)methanone] | 
25 to 75% | > 75% |  | 25 to 75% | > 75% |  | < 25% | < 25% |  | CC(C)c1cnn(C(=O)N2CCN(C(c3ccc(Cl)cc3)c3ccc(Cl)cc3)CC2)c1 [Example 120, (4-(Bis(4-chlorophenyl)methyl)piperazin-1-yl)(4-isopropyl-1H-pyrazol-1-yl)methanone] | 
 |  | < 100 nM |  |  | 100 to 1000 nM |  |  | > 1000 nM | O=C(N1CCN(C(c2ccc(Cl)cc2)c2ccc(Cl)cc2)CC1)n1cc(Cl)cn1 [Example 100, (4-(Bis(4-chlorophenyl)methyl)piperazin-1-yl)(4-chloro-1H-pyrazol-1-yl)methanone] | 
> 75% |  | < 100 nM | > 75% |  | 100 to 1000 nM | < 25% |  | > 1000 nM | O=C(N1CCN(Cc2ccc(C(F)(F)F)cc2N2CCCC2)CC1)n1cc(Cl)cn1 [Example 125, (4-Chloro-1H-pyrazol-1-yl)(4-(2-(pyrrolidin-1-yl)-4-(trifluoromethyl)benzyl)piperazin-1-yl)methanone] | 
 | < 25% |  |  | 25 to 75% |  |  | < 25% |  | CC(=O)N1CCCN(C(=O)n2cc(Cl)cn2)CC1 [Example 188, 1-(4-(4-Chloro-1H-pyrazole-1-carbonyl)-1,4-diazepan-1-yl)ethanone] | 
 |  | < 100 nM |  |  | > 1000 nM |  |  | > 1000 nM | O=C(N1CCN(C(c2ccc(Cl)cc2)c2ccc(Cl)cc2)CC1)n1cccn1 [Example 46, (4-(Bis(4-chlorophenyl)methyl)piperazin-1-yl)(1H-pyrazol-1-yl)methanone] | 
 | < 25% |  |  | > 75% |  |  | > 75% |  | O=C(N1CCCC1)n1cc(-c2ccc(Cl)cc2)cn1 [Example 105, (4-(4-Chlorophenyl)-1H-pyrazol-1-yl)(pyrrolidin-1-yl)methanone] | 
> 75% |  |  | > 75% |  |  | > 75% |  |  | CC(C)n1cc(CN2CCN(C(=O)n3cc(Cl)cn3)CC2)c(-c2ccccc2)n1 [Example 101, (4-Chloro-1H-pyrazol-1-yl)(4-((1-isopropyl-3-phenyl-1H-pyrazol-4-yl)methyl)piperazin-1-yl)methanone] | 
< 25% | < 25% |  | > 75% | > 75% | 100 to 1000 nM | < 25% | 25 to 75% |  | Cc1ccccc1-c1cnn(C(=O)N2CCN(Cc3c(N4CCCC4)cccc3C(F)(F)F)CC2)c1 [Example 114, (4-(2-(Pyrrolidin-1-yl)-6-(trifluoromethyl)benzyl)piperazin-1-yl)(4-(o-tolyl)-1H-pyrazol-1-yl)methanone] | 
 |  | 100 to 1000 nM |  |  | 100 to 1000 nM |  |  | > 1000 nM | O=C(c1cnn(C(=O)N2CCN(C(c3ccc(Cl)cc3)c3ccc(Cl)cc3)CC2)c1)N1CCCC1 [Example 48, (4-(Bis(4-chlorophenyl)methyl)piperazin-1-yl)(4-(pyrrolidine-1-carbonyl)-1H-pyrazol-1-yl)methanone] | 
> 75% | > 75% | 100 to 1000 nM | > 75% | > 75% | 100 to 1000 nM | < 25% | > 75% | > 1000 nM | O=C(c1cnn(C(=O)N2CCN(C(c3ccc(Cl)cc3)c3ccc(Cl)cc3)CC2)c1)N1CCC1 [Example 68, Azetidin-1-yl(1-(4-(bis(4-chlorophenyl)methyl)piperazine-1-carbonyl)-1H-pyrazol-4-yl)methanone] | 
> 75% |  |  | > 75% |  |  | < 25% |  |  | O=C(N1CCN(C(c2ccc3c(c2)COC3)c2ccc3c(c2)COC3)CC1)n1cc(Cl)cn1 [Example 95, (4-(Bis(1,3-dihydroisobenzofuran-5-yl)methyl)piperazin-1-yl)(4-chloro-1H-pyrazol-1-yl)methanone] | 
 | < 25% |  |  | > 75% |  |  | < 25% |  | O=C(N1CCCC1)n1cc(-c2ccc(-c3ccccc3Cl)cc2)cn1 [Example 108, (4-(2′-Chloro-[1,1′-biphenyl]-4-yl)-1H-pyrazol-1-yl)(pyrrolidin-1-yl)methanone] | 
